Laboratory results from patent publication US8951397B2, “Electrophoretic analysis method” (Godo Shusei Co., Ltd., priority 2009, dated 2015).

Assays:
D protease [1] = target: T1, D protease (Paenibacillus polymyxa, UniProt P29148); test: Inhibition, activation and stabilization of D protease; assay type: biochemical; settings: for Inhibition of D protease: metal chelating agents and oxidizing agents
D protease [2] = target: T1, D protease; settings: Patent Document 1; cited from earlier work

T1 sequence (P29148 287-590): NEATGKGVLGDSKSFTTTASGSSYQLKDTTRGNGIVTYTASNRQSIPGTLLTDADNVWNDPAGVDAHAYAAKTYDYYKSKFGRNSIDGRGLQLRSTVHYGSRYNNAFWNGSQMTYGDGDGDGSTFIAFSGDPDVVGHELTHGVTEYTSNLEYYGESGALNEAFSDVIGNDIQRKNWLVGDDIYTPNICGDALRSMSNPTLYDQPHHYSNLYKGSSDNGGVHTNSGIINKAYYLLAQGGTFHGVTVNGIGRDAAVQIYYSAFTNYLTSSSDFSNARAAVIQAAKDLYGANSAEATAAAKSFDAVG

Row | Compound | Inhibition of D protease (D protease [1]) | Effect on D protease activity (D protease [2]) | other results
1 | c1ccc(-c2ccccn2)nc1 [2,2-dipyridyl] | inhibited |  | 
2 | [Al+3] [Al^3+] |  | activity enhanced | 
3 | [Ca+2] [Ca^2+] |  | activity enhanced | Stabilization of D protease (D protease [1]): stabilized
4 | [Fe+2] [Fe^2+] |  | activity enhanced | 
5 | [Mg+2] [Mg^2+] |  | activity enhanced | 
6 | [Mn+2] [Mn^2+] |  | activity enhanced | 
7 | O=C1CCC(=O)N1Br [N-bromosuccinimide] | inhibited |  | 
8 | c1cnc2c(c1)ccc1cccnc12 [O-phenanthroline] | inhibited |  | 
9 | O=C(O)CC(O)(CC(=O)O)C(=O)O [citric acid] | inhibited |  | 
10 | II [iodine] | inhibited |  | 
11 | [F-].[Na+] [sodium fluoride] | inhibited |  | 
12 | [Zn+2] [zinc ion] |  |  | Activation of D protease (D protease [1]): activation thereof requires zinc ion
